This note sets out measurements from publication PMC5011490, “Effect of Tris, MOPS, and phosphate buffers on the hydrolysis of polyethylene terephthalate films by polyester hydrolases” (FEBS Open Bio, 2016).

Molecules are shown by their SMILES.

This experiment addresses T1, TfCut2 (Thermobifida fusca, UniProt Q6A0I4).
T1 construct: gene cut2; gene without signal peptide from T. fusca KW3 genomic DNA, pET-20b(+) with pelB leader and His6 tag, E. coli BL21(DE3), purified
The experiment can be described thus: PET film hydrolysis, released products by RP-HPLC; Lineweaver-Burk slope replot. The settings on record: amorphous PET film substrate, 0.2 M sodium phosphate pH 8.0, 60 °C, 1 h; MOPS 0.05-0.075 M; competitive. Type of experiment: biochemical. From the text:
PET film hydrolysis, released products by RP-HPLC; Lineweaver-Burk slope replot on TfCut2

T1 sequence (Q6A0I4 41-301): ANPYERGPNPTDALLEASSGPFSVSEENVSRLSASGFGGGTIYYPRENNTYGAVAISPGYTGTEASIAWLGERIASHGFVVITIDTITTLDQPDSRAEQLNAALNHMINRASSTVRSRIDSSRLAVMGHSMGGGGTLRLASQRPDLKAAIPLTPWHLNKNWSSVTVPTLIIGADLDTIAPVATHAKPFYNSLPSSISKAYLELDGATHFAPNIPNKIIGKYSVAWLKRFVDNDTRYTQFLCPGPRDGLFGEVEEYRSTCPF

`O=S(=O)(O)CCCN1CCOCC1` [MOPS, 3‐(N‐morpholino)propanesulfonic acid]: the Ki came out at 80 mM.

The term Ki denotes the equilibrium dissociation constant of an inhibitor or competing ligand from its target.
